# System: normal, human-derived epidermal keratinocytes
# Assay: EPIDERM Skin Model In Vitro Toxicity Testing System, dermal irritancy potential (ET-50 test)
# Conditions: time at which percent viability equals 50%
# Description: Applicants' jojobate carboxylate/jojoba alcohol/glycol formulation of Example I was evaluated by MatTek Corporation using an EPIDERM Skin Model In Vitro Toxicity Testing System.
# The percentage of viable cells was then determined for each test sample using a spectrophotometric analysis at 570 nm. Thereafter, a semi-log plot of the percent viabilities, on the linear Y axis, versus the dosing times, on the log X axis. By interpolation, the time which the percent viability would equal 50%, i.e. the ET-50 time, was determined.
row,Compound,ET-50 time
1,CCCCCCCCCCCCOS(=O)(=O)[O-].[Na+] [Sodium Lauryl Sulfate],less than 1 hours
2,Triton X,3.7 h
